Values after ≈ are worked out from the molar mass of the structure shown.
What was measured:
Format in all cases: cell-based
[1] = test system: Haemophilus influenzae 12214; assay: MIC, standard agar dilution method using HTM medium; details: for MIC: read-out: minimum inhibitory concentration (MIC), Strain K
From the text: (§1) The biological activities of compounds of the present invention against Haemophilus influenzae have been determined by standard agar dilution method using HTM medium (National Committee for Clinical Laboratory Standards. 2000. Methods for Dilution Antimicrobial Susceptibility Tests for Bacteria that Grow Aerobically, 5th edition. Approved standard M7-A5. National Committee for Clinical Laboratory Standards, Wayne, Pa.).

[2] = test system: Haemophilus influenzae B1501; assay: as above; details: for MIC: read-out: minimum inhibitory concentration (MIC), Strain M
From the text: as §1

[3] = test system: Haemophilus influenzae QK12/87; assay: as above; details: for MIC: read-out: minimum inhibitory concentration (MIC), Strain I
From the text: as §1

[4] = test system: Haemophilus influenzae QK50; assay: as above; details: for MIC: read-out: minimum inhibitory concentration (MIC), Strain L
From the text: as §1

[5] = test system: Staphylococcus aureus ATCC 29213; assay: MIC, standard microdilution technique; details: for MIC: ATCC29213, read-out: minimum inhibitory concentration (MIC), Strain A
From the text: (§2) The antibacterial activities of the compounds have been determined by standard microdilution technique (National Committee for Clinical Laboratory Standards. 2000. Methods for Dilution Antimicrobial Susceptibility Tests for Bacteria that Grow Aerobically, 5th edition. Approved standard M7-A5. National Committee for Clinical Laboratory Standards, Wayne, Pa.).

[6] = test system: Streptococcus pneumoniae l/l; assay: MIC, standard microdilution technique; details: for MIC: read-out: minimum inhibitory concentration (MIC), Strain E
From the text: as §2

[7] = test system: Staphylococcus aureus 745; assay: MIC, standard microdilution technique; details: for MIC: read-out: minimum inhibitory concentration (MIC), Strain C
From the text: as §2

[8] = test system: Staphylococcus aureus 1086; assay: MIC, standard microdilution technique; details: for MIC: read-out: minimum inhibitory concentration (MIC), Strain B
From the text: as §2

[9] = test system: Streptococcus pneumoniae SL199T; assay: MIC, standard microdilution technique; details: for MIC: read-out: minimum inhibitory concentration (MIC), Strain G
From the text: as §2

[10] = test system: Escherichia coli ATCC 25922; assay: MIC, standard microdilution technique; details: for MIC: ATCC25922, read-out: minimum inhibitory concentration (MIC), Strain D
From the text: as §2

[11] = test system: Streptococcus pneumoniae 12288; assay: MIC, standard microdilution technique; details: for MIC: read-out: minimum inhibitory concentration (MIC), Strain H
From the text: as §2

[12] = test system: Streptococcus pneumoniae ¼; assay: MIC, standard microdilution technique; details: for MIC: read-out: minimum inhibitory concentration (MIC), Strain F
From the text: as §2

Compound | MIC [1] | MIC [2] | MIC [3] | MIC [4] | MIC [5] | MIC [7] | MIC [8] | MIC [9] | minimum inhibitory concentration (MIC), Strain K [1] | minimum inhibitory concentration (MIC), Strain M [2] | minimum inhibitory concentration (MIC), Strain I [3] | minimum inhibitory concentration (MIC), Strain L [4] | minimum inhibitory concentration (MIC), Strain A [5] | minimum inhibitory concentration (MIC), Strain E [6] | minimum inhibitory concentration (MIC), Strain C [7] | minimum inhibitory concentration (MIC), Strain B [8] | minimum inhibitory concentration (MIC), Strain G [9] | minimum inhibitory concentration (MIC), Strain D [10] | minimum inhibitory concentration (MIC), Strain H [11] | minimum inhibitory concentration (MIC), Strain F [12] | further results
CC[C@H]1OC(=O)[C@@](C)(F)C(=O)[C@H](C)[C@@H](O[C@@H]2O[C@H](C)C[C@H](N(C)C)[C@H]2O)[C@](C)(OC)C[C@@H](C)C(=O)[C@H](C)[C@H]2[C@@H](SCc3ccc(OC)cc3)C(=O)O[C@@]21C (single isomer, unassigned) [Example 1, (3R or S, 3aR, 4R or S, 6R, 8R, 9R, 10R, 12S, 15R, 15aS)-15-Ethyl-12-fluorooctahydro-8-methoxy-3-[[(4-methoxyphenyl)methyl]thio]-4,6,8,10,12,15a-hexamethyl-9-[[3,4,6-trideoxy-3-(dimethylamino)-β-D-xylo-hexopyranosyl]oxy]-2H-furo [2,3-c] oxacyclotetradecin-2,5,11,13 (3H,6H,12H)-tetrone] | > 32 µg/mL | 32 µg/mL (≈ 40.9 µM) | > 32 µg/mL | 32 µg/mL (≈ 40.9 µM) | 2 µg/mL (≈ 2.56 µM) | > 32 µg/mL | 2 µg/mL (≈ 2.56 µM) | 32 µg/mL (≈ 40.9 µM) | – | – | – | – | – | – | – | – | – | – | – | – | MIC [6]: 0.5 µg/mL (≈ 0.639 µM); MIC [10]: > 32 µg/mL; MIC [11]: > 32 µg/mL; MIC [12]: 8 µg/mL (≈ 10.2 µM)
CC[C@H]1OC(=O)[C@@](C)(F)C(=O)[C@H](C)[C@@H](O[C@@H]2O[C@H](C)C[C@H](N(C)C)[C@H]2O)[C@](C)(OC)C[C@@H](C)C(=O)[C@H](C)[C@H]2[C@@H](S(=O)(=O)Cc3ccc(OC)cc3)C(=O)O[C@@]21C (single isomer, unassigned) [Example 2] | – | – | – | – | – | – | – | – | >32 µg/mL | >32 µg/mL | >32 µg/mL | 32 µg/mL (≈ 39.3 µM) | 2 µg/mL (≈ 2.46 µM) | <=0.06 μg/ml | >32 µg/mL | 2 µg/mL (≈ 2.46 µM) | >32 µg/mL | >32 µg/mL | >32 µg/mL | 4 µg/mL (≈ 4.91 µM) | –
CC[C@H]1OC(=O)[C@H](C)C(=O)[C@H](C)[C@@H](O[C@@H]2O[C@H](C)C[C@H](N(C)C)[C@H]2O)[C@](C)(OC)C[C@@H](C)C(=O)[C@H](C)[C@H]2[C@@H](SSc3ncccc3[N+](=O)[O-])C(=O)O[C@@]21C (single isomer, unassigned) [Example 3] | – | – | – | – | – | – | – | – | >32 µg/mL | >32 µg/mL | >32 µg/mL | >32 µg/mL | 2 µg/mL (≈ 2.51 µM) | <=0.06 μg/ml | >32 µg/mL | 2 µg/mL (≈ 2.51 µM) | 32 µg/mL (≈ 40.1 µM) | >32 µg/mL | >32 µg/mL | 16 µg/mL (≈ 20.1 µM) | –
CC[C@H]1OC(=O)[C@H](C)C(=O)[C@H](C)[C@@H](O[C@@H]2O[C@H](C)C[C@H](N(C)C)[C@H]2O)[C@](C)(OC)C[C@@H](C)C(=O)[C@H](C)[C@H]2[C@@H](SCC(=O)OC)C(=O)O[C@@]21C (single isomer, unassigned) [Example 5] | – | – | – | – | – | – | – | – | 32 µg/mL (≈ 44.7 µM) | 16 µg/mL (≈ 22.3 µM) | 32 µg/mL (≈ 44.7 µM) | 32 µg/mL (≈ 44.7 µM) | 1 µg/mL (≈ 1.4 µM) | 0.125 µg/mL (≈ 0.175 µM) | >32 µg/mL | 1 µg/mL (≈ 1.4 µM) | >32 µg/mL | >32 µg/mL | >32 µg/mL | >32 µg/mL | –
CC[C@H]1OC(=O)[C@@](C)(F)C(=O)[C@H](C)[C@@H](O[C@@H]2O[C@H](C)C[C@H](N(C)C)[C@H]2O)[C@](C)(OC)C[C@@H](C)C(=O)[C@H](C)[C@H]2[C@@H](SCCCn3cc(-c4ccccc4)cn3)C(=O)O[C@@]21C (single isomer, unassigned) [Example 10] | – | – | – | – | – | – | – | – | >32 µg/mL | >32 µg/mL | 32 µg/mL (≈ 37.8 µM) | 32 µg/mL (≈ 37.8 µM) | 0.5 µg/mL (≈ 0.591 µM) | 0.5 µg/mL (≈ 0.591 µM) | >32 µg/mL | 0.5 µg/mL (≈ 0.591 µM) | 8 µg/mL (≈ 9.46 µM) | >32 µg/mL | 16 µg/mL (≈ 18.9 µM) | 2 µg/mL (≈ 2.36 µM) | –
CC[C@H]1OC(=O)[C@@](C)(F)C(=O)[C@H](C)[C@@H](O[C@@H]2O[C@H](C)C[C@H](N(C)C)[C@H]2O)[C@](C)(OC)C[C@@H](C)C(=O)[C@H](C)[C@H]2[C@@H](SCCn3cnc(-c4cccnc4)n3)C(=O)O[C@@]21C (single isomer, unassigned) [Example 12, (3R or S, 3aR, 4R or S, 6R, 8R, 9R, 10R, 12S, 15R, 15aS)-15-Ethyl-12-fluorooctahydro-8-methoxy-4,6,8,10,12,15a-hexamethyl-3-[[2-[3-(3-pyridinyl)-1H-1,2,4-triazole-1-yl]ethyl]thio]-9-[[3,4,6-trideoxy-3-(dimethylamino)-β-D-xylo-hexopyranosyl]oxy]-2H-furo [2,3-c] oxacyclotetradecin-2,5,11,13 (3H,6H,12H)-tetrone] | 4 µg/mL (≈ 4.8 µM) | 4 µg/mL (≈ 4.8 µM) | 8 µg/mL (≈ 9.59 µM) | 4 µg/mL (≈ 4.8 µM) | ≤ 0.06 µg/mL | > 32 µg/mL | ≤ 0.06 µg/mL | 0.25 µg/mL (≈ 0.3 µM) | – | – | – | – | – | – | – | – | – | – | – | – | MIC [6]: ≤ 0.06 µg/mL; MIC [10]: > 32 µg/mL; MIC [11]: 4 µg/mL (≈ 4.8 µM); MIC [12]: ≤ 0.06 µg/mL
CC[C@H]1OC(=O)[C@H](C)C(=O)[C@H](C)[C@@H](O[C@@H]2O[C@H](C)C[C@H](N(C)C)[C@H]2O)[C@](C)(OC)C[C@@H](C)C(=O)[C@H](C)[C@H]2[C@@H](S(=O)(=O)CCNC(=O)c3cccnc3)C(=O)O[C@@]21C (single isomer, unassigned) [Example 43, (3R or S, 3aR, 4R or S, 6R, 8R, 9R, 10R, 12R, 15R, 15aS) -15-Ethyloctahydro-8-methoxy-4,6,8,10,12,15a-hexamethyl-3-[[2-[(3-pyridinylcarbonyl)amino]ethyl]sulfonyl]-9-[[-3,4,6-trideoxy-3-(dimethylamino)-β-D-xylo-hexopyranosyl]oxy]-2H-furo [2,3-c] oxacyclotetradecin-2,5,11,13 (3H,6H,12H)-tetrone] | 16 µg/mL (≈ 19.4 µM) | 8 µg/mL (≈ 9.71 µM) | 16 µg/mL (≈ 19.4 µM) | 16 µg/mL (≈ 19.4 µM) | 2 µg/mL (≈ 2.43 µM) | > 32 µg/mL | 1 µg/mL (≈ 1.21 µM) | 32 µg/mL (≈ 38.8 µM) | – | – | – | – | – | – | – | – | – | – | – | – | MIC [10]: > 32 µg/mL; MIC [11]: > 32 µg/mL

— patent US6995143B2, “Macrolides with antibacterial activity” (Basilea Pharmaceutica AG, priority 2002, dated 2006)
